According to patent US20230339970A1, “CASEIN KINASE 1 DELTA MODULATORS” (priority 2020, published 2023):

How the values were obtained:
[1] = target: T1, human recombinant GST cleaved CSNK1D (Homo sapiens, UniProt P48730); experiment: Purified Enzyme Assay (ADP-Glo CSNK1D Kinase Assay); assay type: biochemical; settings: 2 nM CSNK1D; peptide substrate 150 μM; ATP 20 μM; 45 minutes at room temperature
T1 construct: GST (cleaved yes); purchased University of Dundee clone DU 19064
Outline: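 GST-cleaved human recombinant CSNK1D phosphorylates peptide PLSRTL-pS-VASLPGL with ATP; compounds added in dose-response, 45 min at room temperature. ADP formed measured by ADP-Glo luminescence and converted to percent activity.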

human CSNK1D = target: T2, human CSNK1D (Homo sapiens, UniProt P48730); experiment: Whole Cell nBRET CSNK1D Binding Assay; settings: living CHO cells stably expressing human CSNK1D tagged with nanoluciferase; NanoBret tracer 130 nM; 2 hours at 37 C
T2 construct: expressed in transfected cells
T2 sequence (P48730 whole entry): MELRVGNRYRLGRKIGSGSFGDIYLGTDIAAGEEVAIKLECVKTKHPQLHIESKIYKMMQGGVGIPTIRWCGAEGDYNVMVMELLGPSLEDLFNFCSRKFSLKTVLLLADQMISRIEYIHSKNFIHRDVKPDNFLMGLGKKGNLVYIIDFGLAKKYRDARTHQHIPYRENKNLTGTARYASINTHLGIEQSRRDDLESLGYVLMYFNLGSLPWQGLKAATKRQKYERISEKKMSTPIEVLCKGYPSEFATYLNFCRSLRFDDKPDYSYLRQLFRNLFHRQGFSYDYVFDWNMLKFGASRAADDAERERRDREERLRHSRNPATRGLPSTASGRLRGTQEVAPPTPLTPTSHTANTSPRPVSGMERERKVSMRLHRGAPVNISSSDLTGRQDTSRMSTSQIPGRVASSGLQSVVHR

T1 sequence (P48730 whole entry): as above

SMILES | IC50 [1] | IC50 (human CSNK1D)
Fc1ccc(-c2nn3c(c2-c2c(F)cnc4[nH]ncc24)CC(F)(F)CC3)cc1 [Example 278, 4-[5,5-Difluoro-2-(4-fluorophenyl)-6,7-dihydro-4H-pyrazolo[1,5-a]pyridin-3-yl]-5-fluoro-1H-pyrazolo[3,4-b]pyridine] | 7 nM | 64 nM
Fc1ccc(-c2nn3c(c2-c2ccnc4[nH]ncc24)CC[C@H]2[C@@H]3C2(F)F)cc1 (stereo in doubt) [Example 355, (5a*S,6a*R)-6,6-Difluoro-2-(4-fluorophenyl)-3-(1H-pyrazolo[3,4-b]pyridin-4-yl)-5,5a,6,6a-tetrahydro-4H-cyclopropa[e]pyrazolo[1,5-a]pyridine] | 9 nM | 27 nM
Cc1cc(-c2c(-c3ccc(F)cn3)nn3c2O[C@H](C)C[C@H]3C)c2cn[nH]c2n1 (single isomer, unassigned) [Example 208, (5*R,7*R)-2-(5-Fluoro-2-pyridyl)-5,7-dimethyl-3-(6-methyl-1H-pyrazolo[3,4-b]pyridin-4-yl)-6,7-dihydro-5H-pyrazolo[5,1-b][1,3]oxazine] | 26 nM | 821 nM
Fc1ccc(-c2nn3c(c2-c2ccnc4[nH]ncc24)OCC(F)(F)C3)cc1 [Example 467, 6,6-Difluoro-2-(4-fluorophenyl)-3-(1H-pyrazolo[3,4-b]pyridin-4-yl)-5,7-dihydropyrazolo[5,1-b][1,3]oxazine] | 2 nM | 21 nM
COCC1CCc2c(-c3cc(C)nc4[nH]ncc34)c(-c3ccc(F)cn3)nn2C1 (single isomer, unassigned) [Example 296, (*S)-4-[2-(5-Fluoro-2-pyridyl)-6-(methoxymethyl)-4,5,6,7-tetrahydropyrazolo[1,5-a]pyridin-3-yl]-6-methyl-1H-pyrazolo[3,4-b]pyridine] | 17 nM | 240 nM
Cc1cc(-c2c(-c3ccc(F)cn3)nn3c2O[C@@H](C)C[C@@H]3C)c2cn[nH]c2n1 (single isomer, unassigned) [Example 209, (5*S,7*S)-2-(5-Fluoro-2-pyridyl)-5,7-dimethyl-3-(6-methyl-1H-pyrazolo[3,4-b]pyridin-4-yl)-6,7-dihydro-5H-pyrazolo[5,1-b][1,3]oxazine] | 8 nM | 165 nM
CC1(C)Cn2nc(-c3ccc(F)cn3)c(-c3ccn4nccc4c3)c2O1 [Example 367, 6-(5-Fluoro-2-pyridyl)-2,2-dimethyl-7-pyrazolo[1,5-a]pyridin-5-yl-3H-pyrazolo[5,1-b]oxazole] | 41 nM | 566 nM
Fc1ccc(-c2nn3c(c2-c2c(F)cnc4[nH]ncc24)CCC2(C3)CC2(F)F)nc1 (single isomer, unassigned) [Example 330, (*R)-2,2-Difluoro-3′-(5-fluoro-1H-pyrazolo[3,4-b]pyridin-4-yl)-2′-(5-fluoropyridin-2-yl)-4′,5′-dihydro-7′H-spiro[cyclopropane-1,6′-pyrazolo[1,5-a]pyridine]] | 2 nM | 22 nM
Fc1ccc(-c2nn3c(c2-c2ccnc4[nH]ncc24)CC2(C3)CC2(F)F)nc1 (single isomer, unassigned) [Example 255, (*R)-1′.1′-Difluoro-2-(5-fluoro-2-pyridyl)-3-(1H-pyrazolo[3,4-b]pyridin-4-yl)spiro[4,6-dihydropyrrolo[1,2-b]pyrazole-5,2′-cyclopropane]] | 66 nM | 1950 nM
Cc1nc(-c2nn3c(c2-c2ccnc4[nH]ncc24)COC(C)(C)C3)ccc1Cl [Example 163, 2-(5-Chloro-6-methylpyridin-2-yl)-6,6-dimethyl-3-(1H-pyrazolo[3,4-b]pyridin-4-yl)-6,7-dihydro-4H-pyrazolo[5,1-c][1,4]oxazine] | 59 nM | 1920 nM
Fc1ccc(-c2nn3c(c2-c2ccnc4[nH]ncc24)OCCCC3)nc1 [Example 218, 2-(5-Fluoro-2-pyridyl)-3-(1H-pyrazolo[3,4-b]pyridin-4-yl)-5,6,7,8-tetrahydropyrazolo[5,1-b][1,3]oxazepane] | 12 nM | 239 nM
Cc1cc(-c2c(-c3ccc(F)cn3)nn3c2COC(C)(C)C3)c2cn[nH]c2n1 [Example 154, 2-(5-Fluoro-2-pyridyl)-6,6-dimethyl-3-(6-methyl-1H-pyrazolo[3,4-b]pyridin-4-yl)-4,7-dihydropyrazolo[5,1-c][1,4]oxazine] | 2 nM | 23 nM
Cc1nc2[nH]ncc2c(-c2c(-c3ccc(F)cn3)nn3c2CO[C@](C)(C(F)(F)F)C3)c1F (single isomer, unassigned) [Example 421, (*S)-3-(5-Fluoro-6-methyl-1H-pyrazolo[3,4-b]pyridin-4-yl)-2-(5-fluoropyridin-2-yl)-6-methyl-6-(trifluoromethyl)-6,7-dihydro-4H-pyrazolo[5,1-c][1,4]oxazine] | 36 nM | 682 nM

Continued by falling IC50 [1], values first:

IC50 [1] | IC50 (human CSNK1D) | SMILES
34 nM | 368 nM | Cc1n[nH]c2ncc(F)c(-c3c(-c4ccc(F)cn4)nn4c3CC[C@@H]3C[C@@H]34)c12 (single isomer, unassigned) [Example 345, (5a*R,6a*S)-3-(5-Fluoro-3-methyl-1H-pyrazolo[3,4-b]pyridin-4-yl)-2-(5-fluoropyridin-2-yl)-5,5a,6,6a-tetrahydro-4H-cyclopropa[e]pyrazolo[1,5-a]pyridine]
29 nM | 254 nM | C[C@H]1Cn2nc(-c3ccc(F)cn3)c(-c3ccnc4[nH]ncc34)c2CO1 (single isomer, unassigned) [Example 86, (*S)-2-(5-Fluoro-2-pyridyl)-6-methyl-3-(1H-pyrazolo[3,4-b]pyridin-4-yl)-6,7-dihydro-4H-pyrazolo[5,1-c][1,4]oxazine]
17 nM | 246 nM | Cc1cc(-c2c(-c3ccc(F)cn3)nn3c2O[C@H](C)CC3)c2cn[nH]c2n1 (single isomer, unassigned) [Example 201, (*R)-2-(5-Fluoro-2-pyridyl)-5-methyl-3-(6-methyl-1H-pyrazolo[3,4-b]pyridin-4-yl)-6,7-dihydro-5H-pyrazolo[5,1-b][1,3]oxazine]
13 nM | 244 nM | CC1(C)Cn2nc(-c3ccc(F)cn3)c(-c3ccncc3)c2CO1 [Example 128, 2-(5-Fluoropyridin-2-yl)-6,6-dimethyl-3-(pyridin-4-yl)-6,7-dihydro-4H-pyrazolo[5,1-c][1,4]oxazine]
5 nM | 46 nM | C[C@@H]1n2nc(-c3ccc(F)cn3)c(-c3ccnc4[nH]nc(Cl)c34)c2COC1(C)C (single isomer, unassigned) [Example 437, (*S)-3-(3-Chloro-1H-pyrazolo[3,4-b]pyridin-4-yl)-2-(5-fluoropyridin-2-yl)-6,6,7-trimethyl-6,7-dihydro-4H-pyrazolo[5,1-c][1,4]oxazine]
3 nM | 38 nM | Cc1cc(-c2c(-c3ccc(F)cn3)nn3c2OCC(C)C3)c2cn[nH]c2n1 (stereo not shown) [Example 197, 2-(5-Fluoropyridin-2-yl)-6-methyl-3-(6-methyl-1H-pyrazolo[3,4-b]pyridin-4-yl)-6,7-dihydro-5H-pyrazolo[5,1-b][1,3]oxazine]
3 nM | 35 nM | Cc1nc(-c2c(-c3ccc(F)cc3)nn3c2OCC2(CC2)C3)c2cn[nH]c2n1 [Example 465, 2′-(4-Fluorophenyl)-3′-(6-methyl-1H-pyrazolo[3,4-d]pyrimidin-4-yl)-5′H,7′H-spiro[cyclopropane-1,6′-pyrazolo[5,1-b][1,3]oxazine]]
3 nM | 80 nM | Fc1ccc(-c2nn3c(c2-c2ccnc4[nH]ncc24)[C@@H](Cl)C[C@]2(C3)CC2(F)F)nc1 (single isomer, unassigned) [Example 337, (1*S,4′*S)-4′-Chloro-2,2-difluoro-2′-(5-fluoropyridin-2-yl)-3′-(1H-pyrazolo[3,4-b]pyridin-4-yl)-4′,5′-dihydro-7′H-spiro[cyclopropane-1,6′-pyrazolo[1,5-a]pyridine]]
2 nM | 20 nM | CC(=O)Nc1cc(-c2c(-c3ccc(F)cn3)nn3c2CC[C@H]2[C@@H]3C2(F)F)ccn1 (stereo in doubt) [Example 351, N-(4-((5a*S,6a*R)-6,6-Difluoro-2-(5-fluoropyridin-2-yl)-5,5a,6,6a-tetrahydro-4H-cyclopropa[e]pyrazolo[1,5-a]pyridin-3-yl)pyridin-2-yl)acetamide]
2 nM | 4 nM | Cc1cc(-c2c(-c3ccc(F)cc3)nn3c2C2CCC3CC2)c2cn[nH]c2n1 [Example 66, 2-(4-Fluorophenyl)-3-(6-methyl-1H-pyrazolo[3,4-b]pyridin-4-yl)-4,5,6,7-tetrahydro-4,7-ethanopyrazolo[1,5-a]pyridine]
2 nM | 38 nM | Fc1ccc(-c2nn3c(c2-c2ccnc4[nH]ncc24)OCCCC3)cc1 [Example 216, 2-(4-Fluorophenyl)-3-(1H-pyrazolo[3,4-b]pyridin-4-yl)-5,6,7,8-tetrahydropyrazolo[5,1-b][1,3]oxazepane]
2 nM | 7 nM | CC1(C)Cc2c(-c3ccnc4[nH]ccc34)c(-c3ccc(F)cn3)nn2C1 [Example 233, 4-[2-(5-Fluoro-2-pyridyl)-5,5-dimethyl-4,6-dihydropyrrolo[1,2-b]pyrazol-3-yl]-1H-pyrrolo[2,3-b]pyridine]
1 nM | 12 nM | Cc1nc2[nH]ncc2c(-c2c(-c3ccc(F)cn3)nn3c2CC[C@]2(C3)CC2(F)F)c1F (single isomer, unassigned) [Example 332, (*R)-2,2-Difluoro-3′-(5-fluoro-6-methyl-1H-pyrazolo[3,4-b]pyridin-4-yl)-2′-(5-fluoropyridin-2-yl)-4′,5′-dihydro-7′H-spiro[cyclopropane-1,6′-pyrazolo[1,5-a]pyridine]]
